Source: patent EP0081321A1, “2-Aminophenol derivatives” (ONO PHARMACEUTICAL CO., LTD., priority 1981, dated 1983)
pIC50: −log10 of the molar value. Counter-ions that a name gives are not always drawn.

How the values were obtained:
[1] = system: cyclooxygenase; experiment: standard assay system using polymorphonuclear leukocytes, HHT or TXB2 production; type: cell-based; settings: polymorphonuclear leukocytes from guinea pig (whole cells), [1-14C] arachidonic acid, 37°C, 5 minutes; production of HHT or TXB2; read-out: concentrations for 50% inhibitions on cyclooxygenase
Experimental: Therefore, it is comfirmed that the compound (a) inhibits both enzymes at the same time at a very low concentration, and that the compounds (b), (c) and (d) inhibit 5-lipoxygenase slightly specifically at a very low concentration.
The experiments for screening using polymorphonuclear leukocytes were carried out as follows: The reaction mixture (0.1 ml) containing 5 µmole of potassium phosphase at pH 7.4, 0.1 µmole of calcium chloride, polymorphonuclear leukocytes prepared from guinea pigs (4 x 10^7 cells) and test compound was preincubated for 5 minutes at 37°C. The reaction was started by the addition of [1-^14C] arachidonic acid (2.2 x 10^3 dpm, 1.8 pmole), followed by the incubation at 37°C for 5 minutes. The reaction was terminated by the addition of 0.3 ml of a mixture of ether/methanol/lM citric acid (30/4/1). The organic phase (20 µl) was applied to silica gel plate. Thin layer chromatography was performed to separate each product with solvent system of ether/petroleum ether/acetic acid (85/15/0.1).
Activities of 5-lipoxygenase and cyclooxygenase were calculated from the measurements of the productions of 5-HETE, and 12L-hydroxy-5, 8, 10-[…] acid (i.e. HHT) or thromboxane B2 (i.e. TXB2) respectively. [it has been known that HHT and TXB2 were the last products of the system concerning cyclooxygenase in the arachidonate cascade.] The concentrations for 50% inhibitions on 5-lipoxygenase and on cyclooxygenase were evaluated by using the concentrations of compounds of the present invention required 50% inhibitions on the productions of 5-HETE, and HHT or TXB2.

[2] = system: mice; experiment: acute toxicity by intravenous injection; type: in vivo; settings: intravenous injection to tail vein, doses of 30 mg/Kg
Experimental: On the other hand, all extent of the compounds of the present invention were confirmed that their acute toxicities were more than 30 mg/Kg by intravenous injection. Therefore, the compounds of the present invention may be considered to be sufficiently safe and suitable for medical use.

SMILES	pIC50 [1]	dead cases in test of acute toxicity [2]
COC(=O)/C=C/c1cc(N)c(O)c(OC)c1.Cl [Example 1(e), 2-Amino-6-methoxy-4-[2-methoxycarbonyl-(1E)-vinyl]phenol hydrochloride]		no dead case in 21 cases
CCOC(=O)/C=C/c1cc(Cl)cc(N)c1O.Cl [Example 1(a), 2-Amino-4-chloro-6-[2-ethoxycarbonyl-(1E)-vinyl]phenol hydrochloride]		no dead case in 21 cases
CCOC(=O)/C=C/C=C/c1cc(Cl)cc(N)c1O [Example 1(b), 2-Amino-4-chloro-6-[4-ethoxycarbonyl-(lE, 3E)-butadienyl]phenol hydrochloride]		no dead case in 21 cases

More lines, main results first:

pIC50 [1]	SMILES	dead cases in test of acute toxicity [2]
6.22	CCOC(=O)/C=C/c1cc(Sc2ccccc2)cc(N)c1O [Example 1(j), 2-Amino-6-[2-ethoxycarbonyl-(lE)-vinyl]-4-phenylthiophenol hydrochloride]	
5.66	CCOC(=O)/C=C/c1ccc(O)c(N)c1 [Example 1(d), 2-Amino-4-[2-ethoxycarbonyl-(1E)-vinyl]-phenol hydrochloride]	
6.00	CCOC(=O)/C=C/c1cccc(N)c1O [Example 1, 2-Amino-6-[2-ethoxycarbonyl-(lE)-vinyl]-phenol hydrochloride]	
5.00	Nc1cc(/C=C/C(=O)OCc2ccc(-c3ccccc3)cc2)ccc1O [Example 1(h), 2-Amino-4-[2-[4-biphenylmethbxycarbonyl]-(1E)-vinyl]-phenol]	
